From PubChem BioAssay (NCI)
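Five compound concentrations were applied to cells in 96-well plates for 48 hours; endpoints were derived by simple linear interpolation of the resulting dose-response curve. GI50 is the concentration that inhibits growth by half. Definition used: TGI = concentration required for complete inhibition of growth.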

Columns and labels:
Assay in all cases: inhibition of tumour cell growth, NCI panel, 48 h
HCC-2998 colon = system: HCC-2998 colon
COLO 205 colon = system: COLO 205 colon
MOLT-4 leukemia = system: MOLT-4 leukemia
UACC-257 melanoma = system: UACC-257 melanoma
MDA-MB-231 breast = system: MDA-MB-231 breast
IGROV1 ovarian = system: IGROV1 ovarian
OVCAR-5 ovarian = system: OVCAR-5 ovarian
UACC-62 melanoma = system: UACC-62 melanoma
TK-10 renal = system: TK-10 renal
SR leukemia = system: SR leukemia
SNB-75 CNS = system: SNB-75 CNS

SMILES | TGI (HCC-2998 colon) [µM] | TGI (COLO 205 colon) [µM] | TGI (MOLT-4 leukemia) [µM] | TGI (UACC-257 melanoma) [µM] | TGI (MDA-MB-231 breast) [µM] | TGI (IGROV1 ovarian) [µM] | TGI (OVCAR-5 ovarian) [µM] | TGI (UACC-62 melanoma) [µM] | TGI (TK-10 renal) [µM] | TGI (SR leukemia) [µM] | TGI (SNB-75 CNS) [µM] | GI50 (HCC-2998 colon) [µM] | GI50 (COLO 205 colon) [µM] | GI50 (UACC-257 melanoma) [µM] | GI50 (MDA-MB-231 breast) [µM] | GI50 (IGROV1 ovarian) [µM] | GI50 (SNB-75 CNS) [µM] | GI50 (OVCAR-5 ovarian) [µM] | GI50 (UACC-62 melanoma) [µM] | GI50 (TK-10 renal) [µM]
CCn1c(CCCc2nc3c([nH]2)c(=O)n(C)c(=O)n3C)nc2c1c(=O)n(C)c(=O)n2C | > 100 | 27 | > 100 | > 100 | > 100 | > 100 | > 100 | > 100 | > 100 |  |  |  |  |  |  |  |  |  |  | 
CCCCCCc1ccc(CCCCCCCC(=O)O)o1 | > 100 | > 100 | 36.1 | > 100 |  | > 100 | > 100 |  |  | > 100 | > 100 |  |  |  |  |  |  |  |  | 
Cc1ccc(C)n1-c1ccccc1C1C=Cn2c(=O)oc3c(OC(C)C)c(OC(C)C)c(O)c1c32 (centres undefined) | > 100 | 30.9 | > 100 | > 100 | 78.8 | > 100 | > 100 | > 100 | > 100 |  | > 100 |  |  |  |  |  |  |  |  | 
O=[N+]([O-])c1c(O)c2nonc2c2nn(-c3ccccc3)nc12 | > 100 | > 100 | > 100 | > 100 |  | > 100 | > 100 | > 100 | > 100 | > 100 | > 100 |  |  |  |  |  |  |  |  | 
Cc1ccc(/C=c2\c(=O)[nH]c3nc4ccccc4c(=O)n23)cc1 | 62.6 | 42.2 | > 100 | > 100 | > 100 |  | > 100 | > 100 | > 100 |  | 75.6 |  |  |  |  |  |  |  |  | 
CCCN=C1NC(C)=CSC(Nc2ccccc2)=C1C#N |  | > 100 | > 100 |  | > 100 |  | > 100 | > 100 | > 100 | > 100 |  |  |  |  |  |  |  |  |  | 
Cc1ccc2sc3c(NCCCN)nc4ccccc4c3c(=O)c2c1 | 3.25 | 5.13 |  | 4.21 | 3.3 | 3.26 | 3.27 | 3.24 | 3.52 |  | 3.56 | 1.74 | 2.19 | 2.04 | 1.7 | 1.61 | 1.64 | 1.71 | 1.74 | 1.81
N=C(N)SCc1nc(-c2ccc(Cl)cc2)no1 |  | 38.3 | 22.6 | > 100 | 35.9 | > 100 | 27.8 | 24.4 | 40.8 | 21.9 | 59.4 |  |  |  |  |  |  |  |  | 
COc1cc2nc(-c3cccs3)nc(N3CCN(c4ccccc4)CC3)c2cc1OC |  | > 100 |  | > 100 | > 100 | > 100 | > 100 | > 100 | > 100 | > 100 | > 100 |  |  |  |  |  |  |  |  | 
O=C(O)C(Cc1ccccc1)Cc1ccccc1 |  | > 100 | > 100 | > 100 | > 100 | > 100 | > 100 | > 100 | > 100 |  | > 100 |  |  |  |  |  |  |  |  | 
C1=CC2C(C3CN(c4ccccc4)N=C13)C1C3C4C=CC21C=CC43 (centres undefined) | > 100 | > 100 | > 100 | > 100 | > 100 | > 100 | > 100 | > 100 | > 100 |  | > 100 |  |  |  |  |  |  |  |  | 
Cc1nc(N)c(N2CCN(S(=O)(=O)N(Cc3ccccc3)Cc3ccccc3)CC2)c(=O)[nH]1 | > 100 | 65.9 | > 100 | 61.5 | > 100 |  | 73.5 |  | 59 | > 100 | 28.6 |  |  |  |  |  |  |  |  | 
CCOc1ccccc1N=NC1C(=O)N(C(=O)CC(=O)Nc2ccccc2C)N=C1C (centres undefined) | > 100 | > 100 | > 100 |  | > 100 | > 100 | > 100 | > 100 | > 100 | > 100 | 54.6 |  |  |  |  |  |  |  |  | 
CC1(C)CCCCCC(O)C(O)CCC(C)(C)C1=O (centres undefined) |  | > 100 | > 100 | > 100 | > 100 | > 100 | > 100 | > 100 | > 100 | > 100 | > 100 |  |  |  |  |  |  |  |  | 
C=C1c2c(n(S(=O)(=O)c3ccccc3)c3ccccc23)[C@@]2(C(=O)OC)CC3C=CC2N1C3 | > 100 | > 100 | > 100 | > 100 | > 100 | > 100 | > 100 | > 100 | > 100 |  | > 100 |  |  |  |  |  |  |  |  | 
O=C1Sc2ccccc2C(=O)N2CCSC12 (centres undefined) | > 100 | > 100 | > 100 | > 100 |  |  | > 100 | > 100 | > 100 | > 100 |  |  |  |  |  |  |  |  |  | 
CSc1nnnc2ccccc12 | > 100 | > 100 | > 100 | > 100 | > 100 | > 100 | > 100 | > 100 | > 100 |  | > 100 |  |  |  |  |  |  |  |  | 
COc1cc(C(c2ccccc2)N2C(=O)CC[C@H]2C(=O)O)cc(OC)c1OC (some centres undefined) | > 100 | > 100 | > 100 | > 100 |  | > 100 | > 100 | > 100 | > 100 | > 100 | > 100 |  |  |  |  |  |  |  |  | 
CC1CN(c2cc3c(cc2F)c(=O)c(C(=O)O)cn3-c2ccc(N3CCN(C)CC3)cn2)CC(C)N1 (centres undefined) |  | > 100 | > 100 | > 100 | > 100 | > 100 | > 100 | > 100 | > 100 | > 100 | > 100 |  |  |  |  |  |  |  |  | 
COC(=O)/C=C1\C(CO[Si](C)(C)C(C)(C)C)OC(n2cc(C)c(=O)n(C)c2=O)C1O[Si](C)(C)C(C)(C)C (centres undefined) |  | > 100 | > 100 |  | > 100 | > 100 | > 100 | > 100 | > 100 |  | > 100 |  |  |  |  |  |  |  |  | 
